According to article PMC5724825, “Structure-activity studies of Mdm2/Mdm4-binding stapled peptides comprising non-natural amino acids” (PLoS ONE, 2017):
Residue numbers refer to the chain shown, from its start. Bridge positions count the residues as written; N and C are the ends. Square brackets hold non-standard residues; d marks the D form. Trp(6-Cl) = N[C@@H](Cc1c[nH]c2cc(Cl)ccc12)C(=O)O; Trp(6-Me) = Cc1ccc2c(C[C@H](N)C(=O)O)c[nH]c2c1; S8 = C=CCCCCCC[C@](C)(N)C(=O)O; S5 = C=CCCC[C@](C)(N)C(=O)O; FAM = carboxyfluorescein

Assays:
Mdm4 (amino acids 1–108) [1] = biological target: T1, Mdm4 (amino acids 1–108) (Homo sapiens, UniProt O15151); assay: Competitive fluorescence anisotropy, Mdm4; type: binding; details: from Table 2
T1 construct: Mdm4 and Mdm4-L98V (amino acids 1–108) were cloned with C-terminal 6xHIS tags; made in house; host or cells: Escherichia coli BL21(DE3)
T1 sequence (O15151 1-108): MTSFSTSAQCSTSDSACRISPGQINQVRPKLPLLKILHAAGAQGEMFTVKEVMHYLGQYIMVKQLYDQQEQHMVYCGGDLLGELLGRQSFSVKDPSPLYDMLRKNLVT
Experimental: (§1) Mdm4 and Mdm4-L98V (amino acids 1–108) were cloned with C-terminal 6xHIS tags. The constructs were then transformed into Escherichia coli BL21(DE3) (Invitrogen) competent cells. Cells were grown in LB medium at 37°C and induced at OD600 nm of 0.6 at 25°C with 0.25 mM IPTG and at 16°C with 1 mM IPTG for Mdm4-WT and Mdm4-L98V respectively. After overnight induction, the cells were harvested by centrifugation, resuspended in His-binding buffer (50 mM Bis-Tris pH 6.5, 1M NaCl, 20 mM imidazole, 0.5 mM DTT), and lysed by sonication. After centrifugation for 60 mins at 19,000 × g at 4°C, the cell lysate was then applied to a 1 mL HisTrap FF column (GE Healthcare) pre-equilibrated in His-binding buffer, washed and eluted off the column with His-elution buffer (50 mM Bis-Tris pH 6.5, 1M NaCl, 500 mM imidazole, 0.5 mM DTT) with a gradient elution of 35% elution buffer in 5 column volumes, followed by 35% to 100% elution buffer over 80 column volumes. Protein purity as assessed by SDS-PAGE was ~ 90%, and the fractions were pooled and buffer exchanged into 50 mM Bis-Tris pH 6.5, 350 mM NaCl, 1 mM DTT. The proteins were then concentrated using Amicon-Ultra (3 kDa MWCO) concentrator (Millipore).
(§2) Fluorescence anisotropy assays were performed as previously described. Titrations of purified Mdm2/Mdm4 proteins were incubated with 50 nM of carboxyfluorescein (FAM) labelled 12–1 peptide (FAM-[…]-NH2) to initially determine the dissociation constants for the peptide-protein interactions. Apparent Kds of peptides were next determined by competitive fluorescence anisotropy. Titrations of peptides were carried out at constant concentrations of Mdm2/Mdm2-M62A/Mdm4 (150 nM), Mdm4-L98V (250 nM) and labelled peptide (50 nM). Anisotropy measurements were carried out using the Envision Multilabel Reader (PerkinElmer). All experiments were carried out in PBS (2.7 mM KCl, 137 mM NaCl, 10 mM Na2HPO4 and 2 mM KH2PO4, pH 7.4), 4% DMSO and 0.1% Tween-20 buffer. All titrations were carried out in duplicate (3–6 repeats). Curve fitting was carried out using Prism (GraphPad).

Mdm2 (amino acids 6–125) [2] = biological target: T2, Mdm2 (amino acids 6–125) (Homo sapiens, UniProt Q00987); assay: Competitive fluorescence anisotropy, Mdm2; type: binding; set-up: Mdm2 (amino acids 6–125) was cloned as a GST-fusion protein; GST (N, cleaved yes); made in house; host or cells: Escherichia coli BL21(DE3) pLysS; details: from Table 2
Mdm2 (amino acids 6–125) [3] = biological target: T2, Mdm2 (amino acids 6–125); set-up: Mdm2 (amino acids 6–125) was cloned as a GST-fusion protein; GST (N, cleaved yes); made in house; host or cells: Escherichia coli BL21(DE3) pLysS; details: earlier series; cited from earlier work
From the text: In common with all reported high-affinity binders, these peptides incorporate a signature p53-derived interacting motif comprising F, W and L residues that respectively dock into discrete hydrophobic pockets in the N-terminal domain of Mdm2 [13]. […] The ...

[4] = tested on: activation of the p53 tumour suppressor; details: earlier series; cited from earlier work
From the text: We have previously described a series of peptide antagonists targeting Mdm2, a key regulator of p53 function. In common with all reported high-affinity binders, these peptides incorporate a signature p53-derived interacting motif comprising F, W and L residues that respectively dock into discrete hydrophobic pockets in the N-terminal domain of Mdm2 [13]. This series exemplified significant enhancements in binding affinity, cellular uptake and activity arising from incorporation of a hydrocarbon tether and replacement of the tryptophan with the non-natural L-6-chlorotryptophan. The ...

[5] = biological target: T3, Mdm4-L98V (amino acids 1–108) (Homo sapiens, UniProt O15151, L98V); assay: Competitive fluorescence anisotropy, Mdm4-L98V; type: binding; details: from Table 2
T3 construct: Mdm4 and Mdm4-L98V (amino acids 1–108) were cloned with C-terminal 6xHIS tags; made in house; host or cells: Escherichia coli BL21(DE3)
T3 sequence (O15151 1-108 L98V): T1 sequence (O15151 1-108) with L98V
Experimental: as §1, §2

[6] = tested on: p53 transactivation in T22 cells; assay: p53 reporter assay in T22 cells (β galactosidase); type: cell-based; details: 5, 10, 20 μM peptide, 18 hours, DMEM with 10% FBS
Experimental: Dulbecco’s Minimal Eagle Medium (DMEM) with 10% fetal bovine serum (FBS) and penicillin/streptomycin was used to maintain cells. T22 cells stably transfected with a p53 responsive β galactosidase reporter, were seeded into 96-well plates (8000 cells per well). 24 hours later, cells were treated with compounds/peptide for 18 hours in DMEM with 10% FBS. β galactosidase activity was measured using the FluoReporter LacZ/Galactosidase Quantitation kit (Invitrogen). Measurements were carried out on a Safire II multiplate reader (TECAN). All experiments were carried out in duplicate.
Fig 4 T22 reporter assay measuring p53 transactivation. A. Cells were treated with increasing concentrations (5, 10, 20 μM) of indicated peptide ligands and p53 activity determined by measuring β galactosidase levels. The small molecule Mdm2 inhibitor Nutlin (10 μM) was used as positive control. Activity is expressed as fold increase over cells treated with DMSO vehicle only. Values represent average ± SD (n = 2). * p < 0.001 compared to DMSO control. B. Lactate dehydrogenase release assay indicating no significant membrane disruption observed for increasing concentrations (2, 10, 20 μM) of indicated ligands compared to vehicle (DMSO) and positive maximum lysis control (MLC). Values represent average ± SD (n = 3).

[7] = biological target: T4, Mdm4-L98V (amino acids 1–108) (UniProt O15151 1-108, L98V); assay: fluorescence polarisation; competitive fluorescence anisotropy, apparent Kd; peptides titrated at constant Mdm2/Mdm2-M62A/Mdm4 (150 nM) or Mdm4-L98V (250 nM) and FAM-labelled 12-1 peptide (50 nM); PBS pH 7.4, 4% DMSO, 0.1% Tween-20; details: both partners purified
T4 construct: Mdm4 (also known as MdmX), amino acids 1-108, with L98V; also called L98V mutant; source: E. coli BL21(DE3), purified (HisTrap FF)
T4 sequence (looked up): T1 sequence (O15151 1-108) with L98V

Mdm4 (amino acids 1–108) [8] = biological target: T5, Mdm4 (amino acids 1–108) (UniProt O15151 1-108); assay: as above; details: both partners purified
T5 construct: Mdm4 (also known as MdmX), amino acids 1-108; also called Mdm4-WT; MdmX; source: E. coli BL21(DE3), purified (HisTrap FF)
T5 sequence (looked up): T1 sequence (O15151 1-108)

[9] = biological target: T4, Mdm4-L98V (amino acids 1–108); assay: as above; details: both partners purified; remark: listed apart in the source
Mdm2 (amino acids 6–125) [10] = biological target: T6, Mdm2 (amino acids 6–125) (UniProt Q00987 6-125); assay: as above; details: both partners purified
T6 construct: Cloned in pGEX-6P-1; also called Mdm2 N-terminal domain; source: E. coli BL21(DE3) pLysS, purified (GSTrap, on-column PreScission cleavage, Resource S cation exchange)

[11] = biological target: T7, Mdm2-M62A (amino acids 6–125) (UniProt Q00987 6-125, M62A); assay: as above; details: both partners purified
T7 construct: Cloned in pGEX-6P-1; source: E. coli BL21(DE3) pLysS, purified (GSTrap, on-column PreScission cleavage, Resource S cation exchange)

Mdm4 (amino acids 1–108) [12] = biological target: T5, Mdm4 (amino acids 1–108); assay: as above; details: both partners purified; remark: listed apart in the source

C=CCCCCCC[C@@](C)(NC(=O)[C@H](Cc1ccccc1)NC(=O)[C@H](CO)NC(=O)[C@@H](NC(C)=O)[C@@H](C)O)C(=O)N[C@@H](CCC(=O)O)C(=O)N[C@@H](Cc1ccc(O)cc1)C(=O)N[C@@H](Cc1c[nH]c2cc(Cl)ccc12)C(=O)N[C@@H](C)C(=O)N[C@@H](CC(C)C)C(=O)N[C@@H](CC(C)C)C(=O)N[C@@](C)(CCCC=C)C(N)=O [M011-L]
Reduced binding to Mdm4 of pre-stapled peptide compared to M011 (Mdm4 (amino acids 1–108) [1]): ~ 4 fold
Reduced binding to Mdm2 of pre-stapled peptide compared to M011 (Mdm2 (amino acids 6–125) [2]): ~ 20 fold

CC(=O)N[C@H](C(=O)N[C@@H](CO)C(=O)N[C@@H](Cc1ccccc1)C(=O)N[C@]1(C)CCCCCCC=CCCC[C@@](C)(C(N)=O)NC(=O)[C@H](CC(C)C)NC(=O)[C@H](CC(C)C)NC(=O)[C@H](C)NC(=O)[C@H](Cc2c[nH]c3cc(Cl)ccc23)NC(=O)[C@H](Cc2ccc(O)cc2)NC(=O)[C@H](CCC(=O)O)NC1=O)[C@@H](C)O [M011]
Binding to Mdm2 over Mdm4 (affinity for Mdm4 reduced compared to Mdm2) (Mdm4 (amino acids 1–108) [1]): ~ 50 fold
Reduced binding to Mdm4 compared to PM2 (Mdm4 (amino acids 1–108) [1]): ~ 3 fold
Increase in Mdm2 binding affinity over the parental peptide (Mdm2 (amino acids 6–125) [3]): ~ 7 fold
Enhanced cellular activity over the parental peptide [4]: ~ 59 fold
Increased Mdm2 binding affinity over parental stapled peptide lacking the 6-chloro modification (PM2) (Mdm2 (amino acids 6–125) [2]): ~ 8 fold
Increase in binding affinity to Mdm4-L98V over binding to Mdm4 [5]: ~ 4.6 fold
More active than M012 in T22 p53 reporter assay [6]: ~ 20%

CC(=O)N[C@H](C(=O)N[C@@H](CO)C(=O)N[C@@H](Cc1ccccc1)C(=O)N[C@]1(C)CCCCCCC=CCCC[C@@](C)(C(N)=O)NC(=O)[C@H](CC(C)C)NC(=O)[C@H](CC(C)C)NC(=O)[C@H](C)NC(=O)[C@H](Cc2c[nH]c3ccccc23)NC(=O)[C@H](Cc2ccc(O)cc2)NC(=O)[C@H](CCC(=O)O)NC1=O)[C@@H](C)O [PM2]
Increase in binding affinity to Mdm4-L98V over binding to Mdm4 [5]: ~ 1.4 fold

CC(=O)N[C@H](C(=O)N[C@@H](CO)C(=O)N[C@@H](Cc1ccccc1)C(=O)N[C@]1(C)CCCCCCC=CCCC[C@@](C)(C(=O)N[C@@H](CO)C(=O)N[C@@H](C)C(=O)N[C@@H](C)C(N)=O)NC(=O)[C@H](CC(C)C)NC(=O)[C@H](CC(C)C)NC(=O)[C@H](C)NC(=O)[C@H](Cc2c[nH]c3cc(Cl)ccc23)NC(=O)[C@H](Cc2ccc(O)cc2)NC(=O)[C@H](CCC(=O)O)NC1=O)[C@@H](C)O [VIP160]
Improved binding to Mdm4 versus M011 (Mdm4 (amino acids 1–108) [1]): ~ 1.7 fold
Change in affinity for Mdm2 versus M011 (Mdm2 (amino acids 6–125) [2]): no change in affinity for Mdm2
Increase in binding affinity to Mdm4-L98V over binding to Mdm4 [5]: ~ 2.5 fold

B1: PM2 stapled peptide (peptide)
chain: TSFXEYWALLL
modifications: not fully specified; N-terminus acetylated; C-terminus amidated; (S)-2-(4′pentenyl) alanine at position 4 and (S)-2-(7′-octenyl) alanine at position 11, fused via olefin metathesis (i, i+7 hydrocarbon linkage)
Kd [7]: 72.3 nM
Kd (Mdm4 (amino acids 1–108) [8]): 101 nM

Ac-TSF[S5]EY[Trp(6-Cl)]ALL[S8]-NH2 (bridges not given here) [M011-L, linear precursor of M011]
Kd [7]: 594 nM
Kd (Mdm4 (amino acids 1–108) [8]): 1390 nM

B2: M011 stapled peptide (peptide)
chain: TSFXEYWALLL
modifications: not fully specified; N-terminus acetylated; C-terminus amidated; L-6-chlorotryptophan at W23 (p53 numbering); (S)-2-(4′pentenyl) alanine at position 4 and (S)-2-(7′-octenyl) alanine at position 11, fused via olefin metathesis (i, i+7 hydrocarbon linkage)
Kd [7]: 72.3 nM
Kd (Mdm4 (amino acids 1–108) [8]): 335 nM

B3: carboxyfluorescein (FAM) labelled 12–1 peptide (peptide)
peptide: {FAM}-RFMDYWEGL-NH2
notes: 12-1 peptide, tracer of the fluorescence anisotropy assays; also called labelled peptide; source: synthetic peptide
binding result [9]: binds
binding result (Mdm2 (amino acids 6–125) [10]): binds
binding result [11]: binds
binding result (Mdm4 (amino acids 1–108) [12]): binds

Ac-TSF[S5]EY[Trp(6-Me)]ALL[S8]-NH2 (staple 4-11; also: Trp(6-Me) D/L mixture, not separated) [M012 stapled peptide]
Kd [7]: 385 nM

Ac-TSF[S5]EY[Trp(6-Me)]ALL[S8]-NH2 (bridges not given here; also: Trp(6-Me) not enantiomerically pure) [M012-L, linear precursor of M012]
Kd [7]: 165 nM
Kd (Mdm4 (amino acids 1–108) [8]): 411 nM
